Test results reported in US8399439B2, “2-methylene-19,26-dinor-(20S,22E,25R)-vitamin D analogs” (Wisconsin Alumni Research Foundation, priority 2008, dated 2013).

Assays:
[1] = tested on: 24-hydroxylase (24Ohase) gene promoter; assay: In vitro transcription assay, luciferase reporter in ROS 17/2.8 (bone) cells; type: cell-based; conditions: for EC50: ROS 17/2.8 cells, 24-hydroxylase promoter-luciferase, 16 h, FIG. 3, read-out: EC50, transcriptional activity in bone cells
Protocol: Transcription activity was measured in ROS 17/2.8 (bone) cells that were stably transfected with a 24-hydroxylase (24Ohase) gene promoter upstream of a luciferase reporter gene (Arbour et al., 1998). Cells were given a range of doses. Sixteen hours after dosing the cells were harvested and luciferase activities were measured using a luminometer.
RLU=relative luciferase units.

vitamin D-deficient rats [2] = assay: Bone calcium mobilization (serum calcium); type: in vivo, rat; conditions: rats on low calcium diet (0.02%), FIG. 4
Protocol: (§1) Male, weanling Sprague-Dawley rats were placed on Diet 11 (0.47% Ca) diet+AEK oil for one week followed by Diet 11 (0.02% Ca)+AEK oil for 3 weeks. The rats were then switched to a diet containing 0.47% Ca for one week followed by two weeks on a diet containing 0.02% Ca. Dose administration began during the last week on 0.02% calcium diet. Four consecutive ip doses were given approximately 24 hours apart. Twenty-four hours after the last dose, blood was collected from the severed neck and the concentration of serum calcium determined as a measure of bone calcium mobilization. The first 10 cm of the intestine was also collected for intestinal calcium transport analysis using the everted gut sac method.
Calcium mobilization from bone and intestinal calcium absorption in vitamin D-deficient animals. Using vitamin D-deficient rats on a low calcium diet (0.02%), the activities of SOR-1 and 1,25(OH)2D3 in intestine and bone were tested.

HL-60 cells = assay: HL-60 cell differentiation (nitro blue tetrazolium reduction); type: cell-based, human; conditions: for EC50: HL-60 cells, 4 days, FIG. 2
Protocol: The study drugs were dissolved in ethanol and the concentrations determined using UV spectrophotometry. Serial dilutions were prepared so that a range of drug concentrations could be tested without changing the final concentration of ethanol (≦0.2%) present in the cell cultures.
Human promyelocytic leukemia (HL60) cells were grown in RPMI-1640 medium containing 10% fetal bovine serum. The cells were incubated at 37° C. in the presence of 5% CO2.
HL60 cells were plated at 1.2×10^5 cells/ml. Eighteen hours after plating, cells in duplicate were treated with drug. Four days later, the cells were harvested and a nitro blue tetrazolium reduction assay was performed (Collins et al., 1979; J. Exp. Med. 149:969-974). The percentage of differentiated cells was determined by counting a total of 200 cells and recording the number that contained intracellular black-blue formazan deposits. Verification of differentiation to monocytic cells was determined by measuring phagocytic activity (data not shown).

[3] = target: T1, full-length recombinant rat vitamin D receptor (Rattus norvegicus, UniProt P13053); assay: Vitamin D receptor competitive binding with [3H]-1,25(OH)2D3; conditions: full-length recombinant rat VDR; FIG. 1; read-out: Ki, competition with [3H]-1,25(OH)2D3 for binding to vitamin D receptor
T1 construct: Full-length recombinant rat receptor was expressed in E. coli; His tag (C); made in house; host or cells: E. coli BL21 (DE3) Codon Plus RIL
T1 sequence (P13053 1-423): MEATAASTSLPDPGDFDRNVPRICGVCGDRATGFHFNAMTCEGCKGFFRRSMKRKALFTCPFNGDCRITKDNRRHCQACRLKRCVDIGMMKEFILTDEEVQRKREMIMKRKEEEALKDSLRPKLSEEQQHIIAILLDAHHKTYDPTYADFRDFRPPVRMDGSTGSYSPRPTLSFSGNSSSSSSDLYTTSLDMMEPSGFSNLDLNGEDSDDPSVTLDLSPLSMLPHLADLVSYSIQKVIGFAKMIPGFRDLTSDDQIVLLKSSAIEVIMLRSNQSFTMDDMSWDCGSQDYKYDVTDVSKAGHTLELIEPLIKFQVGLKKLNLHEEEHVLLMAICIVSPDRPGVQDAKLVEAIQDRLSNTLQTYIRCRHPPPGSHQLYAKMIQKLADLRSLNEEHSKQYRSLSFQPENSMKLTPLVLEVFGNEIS
Protocol: Full-length recombinant rat receptor was expressed in E. coli BL21 (DE3) Codon Plus RIL cells and purified to homogeneity using two different column chromatography systems. The first system was a nickel affinity resin that utilizes the C-terminal histidine tag on this protein. The protein that was eluted from this resin was further purified using ion exchange chromatography (S-Sepharose Fast Flow). Aliquots of the purified protein were quick frozen in liquid nitrogen and stored at −80° C. until use. For use in binding assays, the protein was diluted in TEDK50 (50 mM Tris, 1.5 mM EDTA, pH7.4, 5 mM DTT, 150 mM KCl) with 0.1% Chaps detergent. The receptor protein and ligand concentration were optimized such that no more than 20% of the added radiolabeled ligand was bound to the receptor.
Radiolabeled and unlabeled ligands were added to 100 mcl of the diluted protein at a final ethanol concentration of ≦10%, mixed and incubated overnight on ice to reach binding equilibrium. The following day, 100 mcl of hydroxylapatite slurry (50%) was added to each tube and mixed at 10-minute intervals for 30 minutes. The hydroxylapaptite was collected by centrifugation and then washed three times with Tris-EDTA buffer (50 mM Tris, 1.5 mM EDTA, pH 7.4) containing 0.5% Titron X-100. […] Total binding was determined from the tubes containing only radiolabeled ligand.

vitamin D-deficient rats [4] = assay: Intestinal calcium transport (everted gut sac method); type: in vivo, rat; conditions: FIG. 5
Protocol: as §1
Intestinal calcium transport was evaluated in the same group of animals using the everted gut sac method (FIG. 5).

[5] = 780 pmol/day ip for 4 consecutive days
[6] = fold more active than 1α,25-dihydroxyvitamin D3
[7] = 2,340 pmol/day ip for 4 consecutive days

Ki [3] [nM] | EC50 (HL-60 cells; Homo sapiens, 96 h) [nM] | Compound | EC50 [1] [nM] | bone calcium mobilization (vitamin D-deficient rats [2]; [5]) | serum calcium levels (vitamin D-deficient rats [2]; all dosages) | EC50 (HL-60 cells) [nM] | transcriptional activity in bone cells relative to 1α,25-dihydroxyvitamin D3 [1, 6] | bone calcium mobilization (vitamin D-deficient rats [2]; [7]) | intestinal calcium transport activity (vitamin D-deficient rats [4]; [5]) | intestinal calcium transport activity (vitamin D-deficient rats [4]; [7]) | HL-60 cell differentiation activity relative to 1α,25-dihydroxyvitamin D3 (HL-60 cells; [6])
– | – | C=C1/C(=C\C=C2/CCC[C@]3(C)[C@@H]([C@H](C)CCCC(C)(C)O)CC[C@@H]23)C[C@@H](O)C[C@@H]1O [1α,25-dihydroxyvitamin D3, reference compound] | 0.2 | significant activity | increased serum calcium levels at all dosages | 2 | – | – | – | – | –
0.1 | 0.9 | C=C1[C@H](O)CC(=C/C=C2\CCC[C@]3(C)[C@@H]([C@@H](C)/C=C/C[C@@H](C)O)CC[C@@H]23)C[C@H]1O [SOR-1, 2-methylene-19,26-dinor-(20S,22E,25R)-1α,25-dihydroxyvitamin D3] | 0.08 | – | – | – | about 3 times | did not result in any mobilization of bone calcium | almost no activity as compared to 1,25(OH)2D3 | activity similar to 1,25(OH)2D3 | about 3 times
